Results: publication PMC9490236, “Accurate de novo design of membrane-traversing macrocycles” (Cell, 2022)
“And” between values parts separate entries of the source, which are not always exact repeats. Equal values may be shown once. Read-outs that look alike come from different tables or passages of the source. Where a SMILES comes first, the peptide text is derived from it. [ ]: non-standard residue; d: D form. dNMeI = CC[C@@H](C)[C@@H](NC)C(=O)O; NMeL = CN[C@@H](CC(C)C)C(=O)O; dNMeL = CN[C@H](CC(C)C)C(=O)O; Sar = CNCC(=O)O

What was measured:
[1] = PAMPA
in vitro = conditions: PAMPA, PAMPA_Papp_Avg
[2] = Caco-2 permeability assay (apical to basolateral); format: in vitro ADME, human; conditions: for Papp A→B: Caco-2, Caco_Papp_Average
Summary of the method: (§1)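 Apical-to-basolateral flux was determined by LC-MS of both compartments after 90 min at 37°C on an orbital shaker, with 50 μM peptide on the apical side and HBSS below. Monolayers were grown for 6 days in an accelerated Caco-2 Transwell format and verified by TEER before and after the run.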

Caco-2 cells = assay: Caco-2 permeability assay (apical to basolateral); format: in vitro ADME, human; conditions: Caco-2
Summary of the method: as §1

[3] = Pharmacokinetics and oral bioavailability of D8.3.p1 and D10.1 in Balb/C female mice (PO, SQ, IV); format: in vivo
Procedure: In vivo bioavailability assays were conducted in mice and rats. D8.3.p1 and D10.1 were studied in female Balb/C mice by van Voorhis group at University of Washington. D11.2 was evaluated in Sprague Dawley (SD) rats by Robert Griffin’s group at Takeda Pharmaceuticals. D11.3 was studied in the male swiss albino mice by the contract research organization, GVK Biosciences Pvt. Ltd., Hyderabad, India. All animals used in these studies were handled in strict accordance with practices made to minimize suffering. All animal experiments conducted at the University of Washington, USA, and Takeda Pharmaceuticals, USA were approved by the Institutional Animal Care and Use Committee. Animal studies at GVK Biosciences were reviewed and approved by the Institutional Animal Ethics Committee of GVK Biosciences. We selected four designed macrocycles with diverse structures and in vitro rates of permeability for in vivo oral bioavailability studies in the rodent models. Due to the intensive resource requirements for such studies, these studies were conducted by three different research groups. D8.3.p1 and D10.1 were studied in female Balb/C mice by van Voorhis group at University of Washington. D11.2 was evaluated in Sprague Dawley (SD) rats by Robert Griffin’s group at Takeda Pharmaceuticals. D11.3 was studied in the male swiss albino mice by the contract research organization, GVK Biosciences Pvt. Ltd., Hyderabad, India. […] Blood samples were collected at multiple time points and plasma was separated from whole blood using centrifugation and stored at -80°C. […] Samples were mixed, centrifuged, and supernatant harvested for LC-MS analysis. For RP-HPLC analysis, peptides were evaluated using Agilent ZORBAX Eclipse Plus C18 1.8 μm, 2.1 mm x 50 mm and Waters Xevo TQ-S micro Triple Quadrupole/ACQUITY UPLC H-Class. […] Pharmacokinetic parameters were modeled using the Phoenix WinNonlin software package. […]

[4] = D8.3.p1 IV 1 mg/kg, individual mice M1, M2, M3, 1 mg/kg
[5] = D8.3.p1 PO 5 mg/kg, individual mice M1, M2, M3, 5 mg/kg
[6] = D8.3.p1 SQ 5 mg/kg, individual mice M1, M2, M3
[7] = female, Balb/C, mouse, in vivo, iv, 1 mg/kg, Plasma level
[8] = female, Balb/C, mouse, in vivo, sc, 5 mg/kg, Plasma level

For `CC[C@@H](C)[C@H]1NC(=O)[C@@H]2CCCN2C(=O)[C@@H]([C@H](C)CC)NC(=O)CN(C)C(=O)[C@H](CC(C)C)NC(=O)[C@@H](Cc2ccccc2)NC(=O)[C@H](CC(C)C)N(C)C(=O)[C@H]2CCCN2C(=O)[C@@H](CC(C)C)NC(=O)[C@H](CC(C)C)NC(=O)[C@H]2CCCN2C1=O` [Design D11.2, DILE DPRO LEU DLEU DPRO *LEU DPHE LEU *GLY DILE PRO] (cyclo(L[Sar][dI]P[dI][dP]L[dL][dP][NMeL][dF])), the PAMPA_R1 [1] was 1.82E-06, the PAMPA_R3 [1] was 2.50E-06 and the Papp (in vitro) was 2.15 ×10⁻⁶ cm/s. The Papp A→B [2] was 2.82 ×10⁻⁶ cm/s, the Caco_R1 (Caco-2 cells) was 1.94 and the Caco_R3 (Caco-2 cells) was 2.65.
Compound `CC[C@@H](C)[C@H]1NC(=O)[C@H]([C@@H](C)CC)NC(=O)[C@H](CC(C)C)N(C)C(=O)[C@H]2CCCN2C(=O)[C@@H]([C@H](C)CC)NC(=O)[C@@H]([C@H](C)CC)N(C)C(=O)[C@H](CC(C)C)NC(=O)[C@H]2CCCN2C(=O)[C@@H]2CCCN2C(=O)[C@H](C(C)C)NC(=O)[C@H]2CCCN2C1=O` [Design D11.3, VAL PRO DPRO LEU *DILE DILE DPRO *LEU ILE DILE DPRO] (cyclo(I[dI][dP]VP[dP]L[dNMeI][dI][dP][NMeL])) has a PAMPA_R1 [1] of 1.91E-06, a PAMPA_R3 [1] of 1.10E-06 and a Papp (in vitro) of 1.48 ×10⁻⁶ cm/s. The Papp ([2]; Caco-2) was 9.11 ×10⁻⁶ cm/s, the Papp A→B [2] was 9.11 ×10⁻⁶ cm/s and the Caco_R1 (Caco-2 cells) was 7.29. The Caco_R3 (Caco-2 cells) was 11.26.
With `CC[C@@H](C)[C@H]1NC(=O)[C@@H](CC(C)C)NC(=O)[C@@H](CC(C)C)N(C)C(=O)[C@@H]2CCCN2C(=O)[C@@H](C(C)C)NC(=O)[C@H](CC(C)C)NC(=O)[C@@H](CC(C)C)N(C)C(=O)[C@@H]2CCCN2C1=O` [Design D8.3.p1, DLEU DVAL PRO *DLEU DLEU DILE PRO *DLEU] (cyclo(L[dV]P[dNMeL][dL][dI]P[dNMeL])) the PAMPA_R1 [1] was 5.23E-06, the PAMPA_R3 [1] was 3.90E-06 and the Papp A→B [2] was 11.8 ×10⁻⁶ cm/s. The Caco_R1 (Caco-2 cells) was 13.1, the Caco_R3 (Caco-2 cells) was 8.9 and the CLP [3, 4] was 37.62 mL/min/kg and 49.17 mL/min/kg and 38.55 mL/min/kg. For the same compound, the MRT [3, 4] was 15.45 min and 13.12 min and 15.23 min, the T1/2 [3, 4] was 14.5 min and 10.5 min and 11.24 min and the VSS [3, 4] was 0.79 L/kg and 0.75 L/kg and 0.62 L/kg. The VZ [3, 4] was 0.89 L/kg and 0.87 L/kg and 0.59 L/kg, the C0 ([3]; D8.3.p1 IV 1 mg/kg, individual mice M1, M2, M3, 1 mg/kg, read-out: C0) was 1610 nM and 1470 nM and the “Half-life T1/2” value ([3]; D8.3.p1 IV 1 mg/kg, mean n=3) was 12.08 min. The “Mean residence time MRT” value ([3]; D8.3.p1 IV 1 mg/kg, mean n=3) was 14.60 min, the “Plasma clearance CLP” value ([3]; D8.3.p1 IV 1 mg/kg, mean n=3) was 41.78 mL/min/kg and the “Volume of distribution @ steady state VSS” value ([3]; D8.3.p1 IV 1 mg/kg, mean n=3) was 0.72 ± 0.09 L/kg. For the same compound, the “Volume of distribution during elimination phase VZ” value ([3]; D8.3.p1 IV 1 mg/kg, mean n=3) was 0.78 ± 0.17 L/kg, the C0 ([3]; D8.3.p1 IV 1 mg/kg, mean n=3, read-out: Initial concentration C0) was 1530 ± 70 nM and the “Oral bioavailability F” value ([3]; D8.3.p1 PO 5 mg/kg vs IV 1 mg/kg, mean) was 10.74%. The Cl/F [3, 5] was 0.0112 L/min and 0.00671 L/min and 0.00706 L/min, the T1/2 [3, 5] was 23.33 min and 18.86 min and 45.25 min and the Tmax [3, 5] was 15 min and 30 min. The Cmax ([3]; D8.3.p1 PO 5 mg/kg, individual mice M1, M2, M3, 5 mg/kg, read-out: Cmax) was 220 nM and 190 nM, the “Apparent clearance Cl/F” value ([3]; D8.3.p1 PO 5 mg/kg, mean n=3) was 0.00834 L/min and the “Half-life T1/2” value ([3]; D8.3.p1 PO 5 mg/kg, mean n=3) was 29.15 min. The “Time of max concentration Tmax” value ([3]; D8.3.p1 PO 5 mg/kg, mean n=3) was 25 ± 0.01 min, the Cmax ([3]; D8.3.p1 PO 5 mg/kg, mean n=3, read-out: Max concentration Cmax) was 210 ± 20 nM and the Cl/F [3, 6] was 0.000617 L/min and 0.000577 L/min and 0.000312 L/min. The T1/2 [3, 6] was 111.2 min and 101.86 min and 250.78 min, the Tmax [3, 6] was 60 min and 30 min and the Cmax ([3]; D8.3.p1 SQ 5 mg/kg, individual mice M1, M2, M3, read-out: Cmax) was 840 nM and 1080 nM and 930 nM. For the same compound, the “Half-life T1/2” value ([3]; D8.3.p1 SQ 5 mg/kg, mean n=3) was 154.61 min, the “Time of max concentration Tmax” value ([3]; D8.3.p1 SQ 5 mg/kg, mean n=3) was 50 ± 17.32 min and the Cmax ([3]; D8.3.p1 SQ 5 mg/kg, mean n=3, read-out: Max concentration Cmax) was 950 ± 120 nM. The Plasma level ([3]; female, Balb/C, mouse, in vivo, iv, 1 mg/kg, 5 min) was 990 nM, the Plasma level ([3]; female, Balb/C, mouse, in vivo, iv, 1 mg/kg, 0.25 h) was 630 nM and the level at time molar at 5 min [3, 7] was 1110 nM. It also gave a level at time molar at 0.25 h [3, 7] of 420 nM, a level at time molar at 0.5 h [3, 7] of 190 nM and a Plasma level ([3]; female, Balb/C, mouse, in vivo, sc, 5 mg/kg, 0.25 h) of 700 nM. It also gave a Plasma level ([3]; female, Balb/C, mouse, in vivo, sc, 5 mg/kg, 0.5 h) of 710 nM, a Plasma level ([3]; female, Balb/C, mouse, in vivo, sc, 5 mg/kg, 2 h) of 880 nM and a Plasma level ([3]; female, Balb/C, mouse, in vivo, sc, 5 mg/kg, 6 h) of 230 nM. It also gave a level at time molar at 0.25 h [3, 8] of 510 nM, a level at time molar at 0.5 h [3, 8] of 540 nM and a level at time molar at 1 h [3, 8] of 840 nM. The level at time molar at 2 h [3, 8] was 720 nM, the level at time molar at 6 h [3, 8] was 150 nM and the level at time molar at 24 h [3, 8] was 20 nM. For the same compound, the level at time molar at 0.5 h ([3]; female, Balb/C, mouse, in vivo, sc, D8.3.p1 SQ 5 mg/kg, 30 min, individual mice M1, M2, M3, read-out: Plasma level) was 1080 nM, the AUC(0-inf) ([3]; female, Balb/C, mouse, in vivo, D8.3.p1 PO 5 mg/kg, mean n=3) was 0.238 µM·h and the AUC(0-t) ([3]; female, Balb/C, mouse, in vivo, D8.3.p1 PO 5 mg/kg, mean n=3, read-out: AUC0-t (converted)) was 0.182 µM·h. It also gave a CL/F ([3]; female, Balb/C, mouse, plasma, sc, D8.3.p1 SQ 5 mg/kg, mean n=3, read-out: Apparent clearance Cl/F) of 0.502 mL/min, a Tmax ([3]; mouse, in vivo, 5 mg/kg, Tmax) of 60 min and a Plasma level ([3]; mouse, in vivo, iv, 1 mg/kg, 5 min) of 1070 ± 70 nM. It also gave a Plasma level ([3]; mouse, in vivo, iv, 1 mg/kg, 0.5 h) of 270 ± 90 nM, a Plasma level ([3]; mouse, in vivo, iv, 1 mg/kg, 1 h) of 60 ± 40 nM and a C0 ([3]; mouse, in vivo, iv, 1 mg/kg, C0) of 1520 nM. It also gave a Plasma level ([3]; mouse, in vivo, po, 5 mg/kg, 1 h) of 120 ± 40 nM, a Plasma level ([3]; mouse, in vivo, po, 5 mg/kg, 2 h) of 10 nM and a Cmax ([3]; mouse, in vivo, po, 5 mg/kg, Cmax) of 230 nM. It also gave a Tmax ([3]; mouse, in vivo, po, 5 mg/kg, Tmax) of 30 min, a Plasma level ([3]; mouse, in vivo, sc, 5 mg/kg, 0.25 h) of 610 ± 130 nM and a Plasma level ([3]; mouse, in vivo, sc, 5 mg/kg, 0.5 h) of 780 ± 280 nM. It also gave a Plasma level ([3]; mouse, in vivo, sc, 5 mg/kg, 1 h) of 900 ± 50 nM, a Plasma level ([3]; mouse, in vivo, sc, 5 mg/kg, 2 h) of 780 ± 90 nM and a Plasma level ([3]; mouse, in vivo, sc, 5 mg/kg, 4 h) of 340 ± 170 nM. The Plasma level ([3]; mouse, in vivo, sc, 5 mg/kg, 6 h) was 130 ± 120 nM and the Plasma level ([3]; mouse, in vivo, sc, 5 mg/kg, 24 h) was 10 ± 0 nM.
